From patent US20250051276A1 (priority 2021, published 2025)

How the values were obtained:
[1] = tested on: 5HT2A sensor; conditions: cited from earlier work
[2] = tested on: 5HT2A sensor; conditions: cited from earlier work; remark: listed apart in the source
[3] = tested on: mice; conditions: hallucinogenic potential; cited from earlier work
[4] = biological target: T1, 5-HT2A (Homo sapiens, UniProt P28223); test: Serotonin 5-HT2A in vitro cellular IPOne antagonism assay; format: cell-based; parameters: host or cells: CHO-K1; conditions: CHO-K1 cells, IPOne HTRF, reference agonist a-Me-5HT; read-out: 5-HT2A IPOne Antagonist Activity
T1 sequence (P28223 whole entry): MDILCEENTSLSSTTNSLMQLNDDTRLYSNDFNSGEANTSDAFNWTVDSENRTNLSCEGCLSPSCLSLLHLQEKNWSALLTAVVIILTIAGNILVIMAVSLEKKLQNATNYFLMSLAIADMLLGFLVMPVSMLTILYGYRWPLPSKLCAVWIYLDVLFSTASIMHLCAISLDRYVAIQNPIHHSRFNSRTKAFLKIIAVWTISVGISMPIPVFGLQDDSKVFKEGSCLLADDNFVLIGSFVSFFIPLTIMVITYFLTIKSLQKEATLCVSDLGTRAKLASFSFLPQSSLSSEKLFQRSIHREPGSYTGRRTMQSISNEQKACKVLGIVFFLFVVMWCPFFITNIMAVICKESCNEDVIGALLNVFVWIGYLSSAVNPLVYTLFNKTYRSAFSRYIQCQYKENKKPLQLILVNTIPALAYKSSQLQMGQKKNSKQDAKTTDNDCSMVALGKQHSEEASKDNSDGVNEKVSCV
Procedure: (§1) Serotonin 5-HT2A In Vitro Cellular IPOne Antagonism Assay. The 5-HT2A TPOne HTRF assay was performed at Epics Therapeutics S.A. (Belgium, FAST-0505I) in antagonism mode using conventional methods. Briefly, CHO-K1 cells expressing human recombinant 5-HT2A receptor grown to mid-log phase in culture media without antibiotics were detached with PBS-EDTA, centrifuged, and resuspended in medium without antibiotics buffer. 20,000 cells were distributed in a 96 well plate and incubated overnight at 37° C. with 500 CO2.
For antagonist testing, a reference agonist a-Me-5HT was added and fluorescence signal monitored for several minutes, followed by addition of 20 μl of assay buffer plus 20 μl of test compound or reference antagonist ketanserin, in each well. The plate was incubated for 60 min. at 37° C. with 5% CO2.
(§2) After addition of the lysis buffer containing IP1-d2 and anti-IP1 cryptate detection reagents, plates were incubated 1-hour at room temperature, and fluorescence ratios were measured according to the manufacturer specification, with the HTRF kit.

[5] = biological target: T1, 5-HT2A; test: Serotonin 5-HT2A in vitro radioligand binding competition assay; parameters: purchased Epics Therapeutics S.A. (Belgium) FAST-0505B; host or cells: membrane extracts; conditions: radiotracer [3H]-DOI, membrane extracts
Procedure: Serotonin 5-HT2A In Vitro Radioligand Binding Competition Assay. The 5-HT2A radioligand binding competition assay was performed at Epics Therapeutics S.A. (Belgium, FAST-0505B) using conventional methods. Briefly, competition binding was performed in duplicate in the wells of a 96 well plate (Master Block, Greiner, 786201) containing binding buffer (optimized for each receptor), membrane extracts (amount of protein/well optimized for each receptor), radiotracer [^3H]-DOI (final concentration optimized for each receptor) and test compound. Nonspecific binding was determined by co-incubation with 200-fold excess of cold competitor. The samples were incubated in a final volume of 0.1 ml at a temperature and for a duration optimized for each receptor and then filtered over filter plates. Filters were washed six times with 0.5 ml of ice-cold washing buffer (optimized for each receptor) and 50 µl of Microscint 20 (Packard) were added in each well. The plates were incubated 15 min on an orbital shaker and then counted with a TopCount™ for 1 min/well.

[6] = tested on: rat cortical neurons; test: Neurite outgrowth in primary neuronal cultures assay; format: cell-based; parameters: key: A: Statistically significant mean increase as a percent of DMSO control at 10 μM or less; B: No statistically significant mean increase as a percent of DMSO control at 10 μM or less; conditions: 72 h, vs DMSO control, 10 μM or less
Excerpt: Neurite Outgrowth in Primary Neuronal Cultures Assay. Changes in the pattern of neurite outgrowth have been implicated in psychiatric and neurodegenerative disorders as well as traumatic injuries. The discovery of new compounds that can positively affect neuritogenesis are important for developing new therapeutics for neurological diseases. Measurement of neurite outgrowth of rat cortical neurons using an automated image-based assay was used to determine the neuroplastic effects of the compounds of the present disclosure. The neurite outgrowth assay was performed at Neurofit SAS (France) as described below.
Pregnant Wistar rats (Janvier; France) were used for the study. They were delivered 6 days before their use. Upon arrival at Neurofit animal facility, they were housed one per cage and maintained in a room with controlled temperature (21-22° C.) and a reversed light-dark cycle (12 h/12 h; lights on: 17:30-05:30; lights off: 05:30-17:30) with food and water available ad libitum.
Female Wistar rats of 17 days gestation were killed by cervical dislocation and the fetuses were removed from the uterus. Their brains were placed in ice-cold medium of Leibovitz (L15, Gibco, Fisher bioblock, France). Cortices were dissected and meninges were carefully removed. The cortical neurons were dissociated by trypsinization for 30 min at 37° C. (trypsin-EDTA, Gibco) in presence of 0.1 mg/ml DNAse I (Roche, France). The reaction was stopped by addition of Dulbecco's Modified Eagle Medium (DMEM; Gibco) with 10% of fetal bovine serum (FBS; Gibco). The suspension was triturated with a 10-ml pipette and using a needle syringe 21 G and centrifuged at 350×g for 10 min at room temperature. The pellet of dissociated cells was resuspended in a medium consisting of Neurobasal (Gibco) supplemented with 2% B27 supplement (Gibco), 0.5 mM L-Glutamine (Gibco), an antibiotic-antimicotic mixture. Viable cells were counted in a Neubauer cytometer using the trypan blue exclusion test (Sigma). Cells were seeded at a density of 10000 cells per well in 96-well plate (Costar) precoated with poly-L-lysine. Test compound at different concentrations were added to the cultures. Donepezil (positive control) was tested at 250 nM.
After 72 h (3 days) of plating, cultures were fixed with paraformaldehyde in PBS (4%, Sigma) for 30 min at 4° C. Then, cells were successively permeabilized with 0.1% Triton X100 for 30 min, saturated with PBS containing 3% of BSA and were incubated 1 h with anti-beta III tubulin antibody (Sigma) at 1/10 000 in PBS containing 0.5% of BSA. Cells were washed three times with PBS containing 0.5% of BSA, and they were incubated 1 h with goat anti-mouse antibody coupled with AF488 (Invitrogen A11001) diluted at 1/1000 in PBS containing 0.5% of BSA. Finally, nuclei were staining with DAPI 1 mg/ml at 1/1000 in PBS containing 0.5% of BSA. After rinsing with PBS, the plate was filmed and neurite networks were examined and analyzed using High-Content Screening (CellInsight, Thermo Scientific). The average number of neurites per neuron and the average total length of neurites per neuron were the main parameters analyzed. Analysis of data was performed using analysis of variance (ANOVA). The Fisher's Protected Least Significant Difference test was used for multiple comparisons. A p value ≤0.05 was considered significant. The software used is StatView 5.0 from SAS Institut.

[7] = biological target: T1, 5-HT2A; test: Serotonin 5-HT2A in vitro cellular IPOne agonism assay; format: cell-based; parameters: host or cells: CHO-K1; conditions: CHO-K1 cells, IPOne HTRF, agonist mode
Procedure: as §1, with “Agonism” for “Antagonism”, “IPOne” for “TPOne”, “FAST-0505I)” for “FAST-0505I) in antagonism mode”, “5%” for “500”
For agonist testing, the medium was removed and 20 μl of assay buffer plus 20 μl of test compound or reference agonist are added in each well. The plate is incubated for 60 min. at 37° C. with 5% CO2.
as §2

| SMILES | competition with 5-HT in the 5HT2A sensor assay in antagonist mode [1] | activation of the 5HT2A sensor assay in agonist mode [2] | also measured |
| --- | --- | --- | --- |
| O=C(c1ccc(F)cc1)C1CCN(CCn2c(=O)[nH]c3ccccc3c2=O)CC1 [Ketanserin] | can compete with 5HT binding to 5HT2A | do not activate the 5HT2A sensor assay in agonist mode |  |
| COc1ccc2c(CCN(C)C)c[nH]c2c1 [Compound 6-MeO-DMT, 6-MeO-DMT] | compete off 5-HT | do not activate the 5HT2A sensor assay in agonist mode | head-twitch response (HTR) [3]: does not produce a HTR |
| CN[C@H](C)Cc1ccc2c(c1)OCO2 [L-MDMA] |  | do not activate the 5HT2A sensor assay in agonist mode |  |
| CCN(CC)C(=O)[C@@H]1C=C2c3cccc4[nH]cc(c34)C[C@H]2N(C)C1 [LSD] |  | activate the 5HT2A sensor assay in agonist mode |  |
| COc1ccc2[nH]cc(CCN(C)C)c2c1 [Compound 5-MeO-DMT, 5-MeO-DMT] |  | activate the 5HT2A sensor assay in agonist mode | head-twitch response (HTR) [3]: produces a robust, dose-dependent head-twitch response |
| COc1cc(CC(C)N)c(OC)cc1I (stereo not drawn) [DOI] |  | activate the 5HT2A sensor assay in agonist mode |  |
| CCN(CC)CCc1c[nH]c2cc(F)ccc12 [Compound 6-F-DET, 6-F-DET] | can compete with 5HT binding to 5HT2A | do not activate the 5HT2A sensor assay in agonist mode |  |
| CN(C)CCc1c[nH]c2ccccc12 [DMT, N,N-dimethyltryptamine] |  | activate the 5HT2A sensor assay in agonist mode |  |
| CCN(CC)C(=O)[C@@H]1C=C2c3cccc4[nH]c(Br)c(c34)C[C@H]2N(C)C1 [BOL148] | can compete with 5HT binding to 5HT2A | do not activate the 5HT2A sensor assay in agonist mode |  |
| C[C@@H](N)Cn1ccc2cc(OCc3ccc(F)cc3)ccc21 [Compound 5, (R)-1-(5-((4-fluorobenzyl)oxy)-1H-indol-1-yl)propan-2-amine] |  |  | IC50 [4]: 0.101 to 1 µM; IC50 [5]: 0.101 to 1 µM; Increase in Neurite Length [6]: B; Increase in Neurite Number [6]: B; Increase in Number of Branchpoints [6]: B; EC50 [7]: 1 to 10 µM |
